Patent US7674816B2, “Substituted melatonin derivatives, process for their preparation, and methods of use” (Abraxis BioScience, LLC, priority 2003, dated 2010)
pIC50: −log10 of the molar value. Like-named read-outs stand apart in the source and are kept apart here.

What was measured:
GABAA α-6 site [1] = assay: GABAA alpha 6 site competitive binding (3H-Ro 15-4513); conditions: Conc. 1.0E−4 M, bovine hippocampus
Source text: (§1) The binding profile of exemplary inventive compounds to neurotransmitter receptor sites is set forth below in Table 1. The characterization of the receptors, isolation of the membrane, and enzyme assay have been described in detail previously (see, e.g., Cole et al., Life Sci., 35, 1755 (1984), Lawrence et al., J. Neurochem., 45(3), 798 (1985), Sweetnam et al., Mol. Pharmacology, 29, 299 (1986), Zarkovsky et al., Neuropharmacology, 26 (7A), 737 (1987), Li et al., Eur. J. Pharmacology, 413, 63 (2001), and Markela et al., Mol. Pharmacology, 52, 380 (1997)).
(§2) The melatonin binding site on GABAA was defined using a series of competitive binding assays. Frozen bovine hippocampus was thawed and homogenized in 40 volumes of ice-cold 0.32 M sucrose. The suspension was centrifuged at 1000×g for 10 minutes at 4° C. The pellet was washed twice in assay buffer and reacted with radioactive ligand in presence or absence of melatonin at 10^−4 M final concentration. The amount of radioactivity remained on the Whatman filter following filtration of the reaction mix and two washes with assay buffer was determined using a liquid scintillation counter. Inhibition of radioactive ligand binding by melatonin represents the competitive binding of melatonin to the same site as the radioactive ligand. GABAA agonist site, GABAA α-1 site, GABAA α-5 site, GABAA α-6 site, and GABAA Cl channel were assayed using ^3H-GABA, ^3H-flunitrazepam, ^3H-RY80, ^3H-Ro 15-4513, and ^3H-TBOB.

GABAA Cl channel [2] = assay: GABAA Cl channel, TBOB site competitive binding (3H-TBOB), single concentration; conditions: Conc. 1.0E−4 M, bovine hippocampus
Source text: as §1, §2

rats [3] = conditions: cited from earlier work; for ED95 (95% CI, for loss of righting reflex): intravenous
GABAA agonist site = GABAA agonist site competitive binding (3H-GABA); conditions: bovine hippocampus
Source text: as §1, §2

GABAA α-1 site [4] = assay: GABAA alpha 1 site competitive binding (3H-flunitrazepam); conditions: Conc. 1.0E−4 M, bovine hippocampus
Source text: as §1, §2

GABAA α-6 site [5] = assay: GABAA alpha 6 site competitive binding (3H-Ro 15-4513); conditions: Conc. 1.0E−3 M, bovine hippocampus
GABAA Cl channel [6] = assay: GABAA Cl channel, TBOB site competitive binding (3H-TBOB), single concentration; conditions: Conc. 1.0E−3 M, bovine hippocampus
GABAA α-1 site [7] = assay: GABAA alpha 1 site competitive binding (3H-flunitrazepam); conditions: Conc. 1.0E−3 M, bovine hippocampus
rats [8] = assay: In vivo hypnotic activity: time to recovery of righting reflex after tail vein injection; conditions: 28 μmol/kg (5 mg/kg for propofol), in DMSO
Protocol: (§3) The suspension was centrifuged at 1000×g for 10 minutes at 4° C. The pellet was washed twice in assay buffer and reacted with radioactive ligand in presence or absence of […] at 10^−4 M final concentration. The amount of radioactivity remained on the Whatman filter following filtration of the reaction mix and two washes with assay buffer was determined using a liquid scintillation counter. Inhibition of radioactive ligand binding by melatonin represents the competitive binding of melatonin to the same site as the radioactive ligand. GABAA Cl channel were assayed using ^3H-TBOB. The binding was carried out in the presence of increasing concentration of melatonin and the KD determined graphically using the Hill plots. In vivo hypnotic activity was determined as follow. Drugs solubilized in DMSO were administered to rats by tail vein injection (N=5 rats per group). A dose level of 28 μmol/kg (5 mg/kg for propofol) was used to compensate for differences in molecular weight of the analogs. Anesthetic activity in vivo was determined as time to recovery of righting reflex following administration of the compounds.

GABAA Cl channel [9] = assay: GABAA Cl channel binding constant determination (3H-TBOB, increasing concentration, Hill plots); conditions: bovine hippocampus
Protocol: as §3

Dawley rats = assay: Response to tail clamping after single i.v. bolus; format: in vivo; conditions: single i.v. bolus 15 mg/kg, in 10% ethanol/16% Cremophor
Protocol: This example illustrates the tail clamping with melatonin analogs. Dawley rats (Harlan, Indianapolis, Ind., USA) were weighed and anaesthetized with isoflurane. In all rats, the right jugular vein was cannulated with a heparinized saline filled catheter. Studies were carried out 5-7 days after surgery.
Tail clamp was tested by application of a rubber-clad vascular clamp (22 cm DeBakey) across the proximal third of the tail. Purposeful movement of the hind limbs and/or the head was noted as a positive response.

CC(C)c1cccc(C(C)C)c1O [2,6-Diisopropylphenol, reference compound]
Specific binding, GABAA Alpha 6 site (inhibition of radioactive ligand binding) (GABAA α-6 site [1]): −0.89% | Specific binding, GABAA Ion Channels Cl−, TBOB site (inhibition of radioactive ligand binding) (GABAA Cl channel [2]): 117.52% | Effect of bolus injection on righting reflex (rats [3]; bolus injection of 10 mg/kg): immediate loss of righting reflex | ED95 (95% CI, for loss of righting reflex) (rats [3]): 14.9 mg/kg | Specific binding, GABAA Agonist site (inhibition of radioactive ligand binding) (GABAA agonist site; Conc. 1.0E−4 M): 12.48% | Specific binding, GABAA Alpha 1 site (inhibition of radioactive ligand binding) (GABAA α-1 site [4]): −14.31%

COc1ccc2[nH]c(-c3cccc(C(F)(F)F)c3)c(CCNC(C)=O)c2c1 [2-(3-Trifluoromethylphenyl) melatonin, N-(2-(2-(3-trifluoromethylphenyl)-5-methoxy-1H-indol-3-yl)ethyl)acetamide]
Specific binding, GABAA Alpha 6 site (inhibition of radioactive ligand binding) (GABAA α-6 site [1]): 25.39% | Specific binding, GABAA Ion Channels Cl−, TBOB site (inhibition of radioactive ligand binding) (GABAA Cl channel [2]): 79.60% | Specific binding, GABAA Alpha 1 site (inhibition of radioactive ligand binding) (GABAA α-1 site [4]): 15.61%

COc1ccc2[nH]c(-c3ccc(F)cc3)c(CCNC(C)=O)c2c1 [2-(4-Fluorophenyl) melatonin, N-(2-(2-(4-fluorophenyl)-5-methoxy-1H-indol-3-yl)ethyl)acetamide]
Specific binding, GABAA Alpha 6 site (inhibition of radioactive ligand binding) (GABAA α-6 site [1]): 20.76% | Specific binding, GABAA Ion Channels Cl−, TBOB site (inhibition of radioactive ligand binding) (GABAA Cl channel [2]): 110.10% | Specific binding, GABAA Alpha 1 site (inhibition of radioactive ligand binding) (GABAA α-1 site [4]): 28.80%

COc1ccc2[nH]c(-c3ccc(C)cc3)c(CCNC(C)=O)c2c1 [2-(4-Methylphenyl) melatonin, N-(2-(5-methoxy-2-p-tolyl-1H-indol-3-yl)ethyl)acetamide]
Specific binding, GABAA Alpha 6 site (inhibition of radioactive ligand binding) (GABAA α-6 site [1]): 32.93% | Specific binding, GABAA Ion Channels Cl−, TBOB site (inhibition of radioactive ligand binding) (GABAA Cl channel [2]): 101.46% | Specific binding, GABAA Alpha 1 site (inhibition of radioactive ligand binding) (GABAA α-1 site [4]): 10.28%

COc1ccc2[nH]c(-c3ccc(C(F)(F)F)cc3)c(CCNC(C)=O)c2c1 [2-(4-Trifluoromethylphenyl) melatonin, N-(2-(2-(4-trifluoromethylphenyl)-5-methoxy-1H-indol-3-yl)ethyl)acetamide]
Specific binding, GABAA Alpha 6 site (inhibition of radioactive ligand binding) (GABAA α-6 site [1]): 25.87% | Specific binding, GABAA Ion Channels Cl−, TBOB site (inhibition of radioactive ligand binding) (GABAA Cl channel [2]): 103.23% | Specific binding, GABAA Alpha 1 site (inhibition of radioactive ligand binding) (GABAA α-1 site [4]): 8.11%

COc1ccc2[nH]c(Br)c(CCNC(C)=O)c2c1 [2-Bromomelatonin, N-(2-(2-bromo-5-methoxy-1H-indol-3-yl)ethyl)acetamide]
Specific binding, GABAA Alpha 6 site (inhibition of radioactive ligand binding) (GABAA α-6 site [5]): −12.69% | Specific binding, GABAA Ion Channels Cl−, TBOB site (inhibition of radioactive ligand binding) (GABAA Cl channel [6]): 51.87% | Specific binding, GABAA Alpha 1 site (inhibition of radioactive ligand binding) (GABAA α-1 site [7]): 8.35% | Specific binding, GABAA Agonist site (inhibition of radioactive ligand binding) (GABAA agonist site; Conc. 1.0E−3 M): −8.55%

COc1ccc2[nH]c(-c3ccccc3)c(CCNC(C)=O)c2c1 [2-Phenylmelatonin, N-(2-(5-methoxy-2-phenyl-1H-indol-3-yl)ethyl)acetamide]
Specific binding, GABAA Alpha 6 site (inhibition of radioactive ligand binding) (GABAA α-6 site [1]): 12.48% | Specific binding, GABAA Ion Channels Cl−, TBOB site (inhibition of radioactive ligand binding) (GABAA Cl channel [2]): 84.28% | Specific binding, GABAA Agonist site (inhibition of radioactive ligand binding) (GABAA agonist site; Conc. 1.0E−4 M): 0.33% | Specific binding, GABAA Alpha 1 site (inhibition of radioactive ligand binding) (GABAA α-1 site [4]): 35.16%

CC(=O)NCCc1c(Cc2ccccc2)[nH]c2ccccc12 [Luzindole, reference compound]
Specific binding, GABAA Alpha 6 site (inhibition of radioactive ligand binding) (GABAA α-6 site [1]): 4.93% | Specific binding, GABAA Ion Channels Cl−, TBOB site (inhibition of radioactive ligand binding) (GABAA Cl channel [2]): 47.55% | Specific binding, GABAA Agonist site (inhibition of radioactive ligand binding) (GABAA agonist site; Conc. 1.0E−4 M): 5.84% | Specific binding, GABAA Alpha 1 site (inhibition of radioactive ligand binding) (GABAA α-1 site [4]): 5.09%

COc1ccc2[nH]cc(CCNC(C)=O)c2c1 [Melatonin, N-acetyl-5-methoxytryptamine]
Specific binding, GABAA Alpha 6 site (inhibition of radioactive ligand binding) (GABAA α-6 site [5]): 17.50% | Specific binding, GABAA Ion Channels Cl−, TBOB site (inhibition of radioactive ligand binding) (GABAA Cl channel [6]): 39.44% | Specific binding, GABAA Alpha 1 site (inhibition of radioactive ligand binding) (GABAA α-1 site [7]): 39.80% | Effect of bolus injection on righting reflex (rats [3]; bolus injection of 312 mg/mL): immediate loss of righting reflex | Specific binding, GABAA Agonist site (inhibition of radioactive ligand binding) (GABAA agonist site; Conc. 1.0E−3 M): −3.11%

CC(C)c1cccc(C(C)C)c1O [drawing 16, reference compound]
Anesthesia Activity (Time to awakening, min) (rats [8]): 20.8 min | pIC50 (GABAA Cl channel [9]): 5.31

COc1ccc2[nH]c(-c3ccccc3)c(CCNC(C)=O)c2c1 [drawing 18]
pIC50 (GABAA Cl channel [9]): 3.97

COc1ccc2[nH]c(-c3ccc(F)cc3)c(CCNC(C)=O)c2c1 [drawing 19]
Anesthesia Activity (Time to awakening, min) (rats [8]): 3.0 min | pIC50 (GABAA Cl channel [9]): 4.55

COc1ccc2[nH]c(-c3ccc(C(F)(F)F)cc3)c(CCNC(C)=O)c2c1 [drawing 20]
Anesthesia Activity (Time to awakening, min) (rats [8]): 20.8 min | pIC50 (GABAA Cl channel [9]): 4.88

COc1ccc2[nH]c(-c3ccc(C)cc3)c(CCNC(C)=O)c2c1 [drawing 21]
Anesthesia Activity (Time to awakening, min) (rats [8]): 4.8 min | pIC50 (GABAA Cl channel [9]): 4.47

COc1ccc2[nH]c(-c3cccc(C(F)(F)F)c3)c(CCNC(C)=O)c2c1 [drawing 22]
Anesthesia Activity (Time to awakening, min) (rats [8]): 3.8 min

COc1ccc(-c2[nH]c3ccc(OC)cc3c2CCNC(C)=O)cc1 [drawing 23]
Anesthesia Activity (Time to awakening, min) (rats [8]): 3.5 min | pIC50 (GABAA Cl channel [9]): 4.70

COc1ccc2[nH]c(-c3ccc(C(C)(C)C)cc3)c(CCNC(C)=O)c2c1 [drawing 24]
Anesthesia Activity (Time to awakening, min) (rats [8]): 20.3 min

COc1ccc2[nH]c(-c3ccccc3)c(CCNC(C)=O)c2c1 [drawing 25, reference compound]
# lack of response rat/tested rat (Dawley rats): 0/5 | Time of lack of response to the tail clamp, min (Dawley rats): No effect

COc1ccc2[nH]c(-c3ccc(F)cc3)c(CCNC(C)=O)c2c1 [drawing 26]
# lack of response rat/tested rat (Dawley rats): 5/5 | Time of lack of response to the tail clamp (Dawley rats): 2 min

COc1ccc2[nH]c(-c3ccc(C(F)(F)F)cc3)c(CCNC(C)=O)c2c1 [drawing 27]
# lack of response rat/tested rat (Dawley rats): 4/5 | Time of lack of response to the tail clamp (Dawley rats): 15 min

COc1ccc2[nH]c(-c3cccc(C(F)(F)F)c3)c(CCNC(C)=O)c2c1 [drawing 28]
# lack of response rat/tested rat (Dawley rats): 5/5 | Time of lack of response to the tail clamp (Dawley rats): 5 min

COc1ccc2[nH]c(-c3ccc(C(C)(C)C)cc3)c(CCNC(C)=O)c2c1 [drawing 29]
# lack of response rat/tested rat (Dawley rats): 5/5 | Time of lack of response to the tail clamp (Dawley rats): 5 min

CCCC(C)C1(CC)C(=O)NC(=S)NC1=O (centres unmarked) [thiopental]
ED95 (95% CI, for loss of righting reflex) (rats [3]): 8 mg/kg
